Experimental data: PubChem BioAssay (NCI)
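Compound exposure: 48 hours, 5 concentrations, 96-well plates. TGI is the concentration that stops growth completely.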

Columns and labels:
Assay in all cases: growth of human tumour cells (NCI), 48 h
NCI-H23 lung = test system: NCI-H23 lung
HL-60(TB) leukemia = test system: HL-60(TB) leukemia
LOX IMVI melanoma = test system: LOX IMVI melanoma
HOP-62 NSCLC = test system: HOP-62 NSCLC
COLO 205 colon = test system: COLO 205 colon
UO-31 renal = test system: UO-31 renal
SF-539 CNS = test system: SF-539 CNS
PC-3 prostate = test system: PC-3 prostate
HCC-2998 colon = test system: HCC-2998 colon
SK-MEL-2 melanoma = test system: SK-MEL-2 melanoma
RXF 393 renal = test system: RXF 393 renal
CAKI-1 renal = test system: CAKI-1 renal
MCF7 breast = test system: MCF7 breast
HCT-116 colon = test system: HCT-116 colon
U251 CNS = test system: U251 CNS
EKVX NSCLC = test system: EKVX NSCLC
DU-145 prostate = test system: DU-145 prostate
HT29 colon = test system: HT29 colon
MOLT-4 leukemia = test system: MOLT-4 leukemia
K-562 leukemia = test system: K-562 leukemia

| Compound | TGI (NCI-H23 lung) | TGI (HL-60(TB) leukemia) | TGI (LOX IMVI melanoma) | TGI (HOP-62 NSCLC) | TGI (COLO 205 colon) | TGI (UO-31 renal) | TGI (SF-539 CNS) | TGI (PC-3 prostate) | TGI (HCC-2998 colon) | TGI (SK-MEL-2 melanoma) | TGI (RXF 393 renal) | TGI (CAKI-1 renal) | TGI (MCF7 breast) | TGI (HCT-116 colon) | TGI (U251 CNS) | TGI (EKVX NSCLC) | TGI (DU-145 prostate) | TGI (HT29 colon) | TGI (MOLT-4 leukemia) | TGI (K-562 leukemia) |
| --- | --- | --- | --- | --- | --- | --- | --- | --- | --- | --- | --- | --- | --- | --- | --- | --- | --- | --- | --- | --- |
| NC(=S)N/N=c1\cc(C(=O)Nc2ccc([N+](=O)[O-])cc2[N+](=O)[O-])oc2ccccc12 | > 100 µM | > 100 µM | > 100 µM | > 100 µM | > 100 µM | > 100 µM | > 100 µM | > 100 µM | > 100 µM | > 100 µM | > 100 µM | > 100 µM | > 100 µM | > 100 µM | > 100 µM | > 100 µM | > 100 µM | > 100 µM | > 100 µM | – |
| CCNc1nc2c(ncn2C2CC(O)C(COP(=O)(O)O)O2)c(=O)[nH]1 (stereo not given) | > 100 µM | > 100 µM | > 100 µM | > 100 µM | > 100 µM | – | > 100 µM | > 100 µM | > 100 µM | > 100 µM | – | > 100 µM | > 100 µM | > 100 µM | > 100 µM | > 100 µM | > 100 µM | > 100 µM | – | – |
| COc1cc(C)c(C)c(OC(=O)c2c(C)c(C)c(OC)c(C)c2OC)c1C | 52.9 µM | 32.6 µM | 20.9 µM | > 100 µM | 15.7 µM | > 100 µM | 38.6 µM | – | 53.1 µM | 24.8 µM | 39.7 µM | 79.6 µM | – | 39 µM | 21 µM | 98.3 µM | – | 23.5 µM | 45.2 µM | 44.7 µM |
| O=S(=O)(NC1OCCCC1I)c1ccccc1 (stereo not given) | > 100 µM | – | > 100 µM | > 100 µM | > 100 µM | > 100 µM | > 100 µM | > 100 µM | > 100 µM | > 100 µM | > 100 µM | > 100 µM | > 100 µM | > 100 µM | > 100 µM | > 100 µM | > 100 µM | > 100 µM | > 100 µM | > 100 µM |
| C/C(CC(=O)NC1=CC=C(NC(=O)C/C(C)=N\Nc2ccccc2)CC1)=N/Nc1ccccc1 | > 100 µM | > 100 µM | > 100 µM | > 100 µM | > 100 µM | > 100 µM | > 100 µM | – | > 100 µM | > 100 µM | > 100 µM | > 100 µM | – | > 100 µM | > 100 µM | > 100 µM | – | > 100 µM | > 100 µM | > 100 µM |
| CC(C)(CC#N)c1cc(CC(C)(C)c2cc(CC(C)(C)c3cc(C(C)(C)C4(C)OCCO4)no3)no2)no1 | > 100 µM | – | – | > 100 µM | > 100 µM | > 100 µM | – | > 100 µM | > 100 µM | > 100 µM | 41.3 µM | 87.2 µM | > 100 µM | > 100 µM | > 100 µM | > 100 µM | > 100 µM | > 100 µM | > 100 µM | > 100 µM |
| CCCC(=O)OCC1OC(n2cc(F)c(=O)[nH]c2=O)C(F)C1OC(=O)CCC (stereo not given) | > 100 µM | > 100 µM | > 100 µM | > 100 µM | > 100 µM | > 100 µM | 27.5 µM | > 100 µM | – | > 100 µM | > 100 µM | > 100 µM | > 100 µM | > 100 µM | > 100 µM | > 100 µM | > 100 µM | > 100 µM | > 100 µM | > 100 µM |
| O=C(Cn1c2ccc(Br)cc2c2nc3ccccc3nc21)N/N=C/c1ccccc1 | > 100 µM | – | – | 97.9 µM | > 100 µM | > 100 µM | 53.6 µM | > 100 µM | – | > 100 µM | > 100 µM | > 100 µM | > 100 µM | – | > 100 µM | > 100 µM | > 100 µM | > 100 µM | – | > 100 µM |
| Cn1c(=O)cc(NCCc2ccccc2)[nH]c1=O | > 100 µM | – | > 100 µM | > 100 µM | > 100 µM | > 100 µM | > 100 µM | > 100 µM | > 100 µM | > 100 µM | > 100 µM | > 100 µM | > 100 µM | > 100 µM | > 100 µM | > 100 µM | > 100 µM | 78.1 µM | > 100 µM | > 100 µM |
| COC(=O)C1=C(O)CCCC(CCC(C)=O)=C1 | > 100 µM | 43.8 µM | > 100 µM | – | 55.2 µM | > 100 µM | 61.1 µM | > 100 µM | > 100 µM | > 100 µM | > 100 µM | > 100 µM | – | 36.1 µM | > 100 µM | > 100 µM | > 100 µM | > 100 µM | > 100 µM | > 100 µM |
| CC(=O)OC1CC[C@@]2(C)C(C1)CC(OC(C)=O)[C@@H]1C2CC(OC(C)=O)[C@]2(C)C(C(C)CC=C(c3ccc(Cl)cc3)c3ccc(Cl)cc3)CCC12 (stereo not given in full) | – | 27.9 µM | – | > 100 µM | > 100 µM | > 100 µM | > 100 µM | > 100 µM | > 100 µM | – | – | – | > 100 µM | > 100 µM | > 100 µM | > 100 µM | – | > 100 µM | > 100 µM | > 100 µM |
| COc1ccc2c(c1)CCC1=C/C(=N\NC(N)=O)CCC12C (stereo not given) | > 10 µM | > 10 µM | > 10 µM | > 10 µM | > 10 µM | – | > 10 µM | > 10 µM | > 10 µM | – | – | > 10 µM | > 10 µM | > 10 µM | > 10 µM | – | > 10 µM | > 10 µM | > 10 µM | > 10 µM |
| Nc1cc(N2CCOCC2)nc(=O)n1-c1ccc(Cl)cc1 | > 100 µM | > 100 µM | > 100 µM | > 100 µM | > 100 µM | > 100 µM | > 100 µM | > 100 µM | > 100 µM | > 100 µM | – | > 100 µM | > 100 µM | > 100 µM | > 100 µM | > 100 µM | > 100 µM | > 100 µM | > 100 µM | > 100 µM |
